# Source: patent US20070049564A1 (Wyeth, priority 2005, published 2007)
# Where two headings read alike, the source gives them in different places.
# Key:
# S. epidermidis GC 4935 = assay: MIC, broth microdilution; conditions: Staphylococcus epidermidis
# E. coli GC 1073 = assay: MIC, broth microdilution; conditions: Escherichia coli
# Experimental: (§1) Antimicrobial susceptibility testing. The in vitro activities of the antibiotics are determined by the broth microdilution method as recommended by the National Committee for Clinical Laboratory Standards (NCCLS) (1). Mueller-Hinton II broth (MHBII)(BBL Cockeysville, Md.) is the medium employed in the testing procedures. Microtiter plates containing serial dilutions of each antimicrobial agent are inoculated with each organism to yield the appropriate density (10^5 CFU/ml) in a 100 μl final volume. The plates are incubated for 18-22 hours at 35° C. in ambient air.
# (§2) Representative compounds were first incubated in mouse serum for an hour prior to the in vitro testing against a panel of selected gram-positive and gram-negative bacteria strains. All compounds were also pre-incubated in water for an hour prior to testing as control. Representative compounds of Formula I were incubated in human serum prior to MIC determination.
# E. faecium GC 4556 = assay: MIC, broth microdilution; conditions: Enterococcus faecium
# E. coli GC 4559 = assay: MIC, broth microdilution; conditions: Escherichia coli
# S. aureus GC 1131 = assay: MIC, broth microdilution; conditions: Staphylococcus aureus
# S. aureus GC 6335 = assay: MIC, broth microdilution; conditions: Staphylococcus aureus
# Experimental: as §1, §2
# S. aureus GC 1079 = assay: MIC, broth microdilution; conditions: Staphylococcus aureus
# Staph. aureus Smith = assay: In vivo activity (oral, iv; ED50) against Staph. aureus Smith in mice
# Experimental: Representative examples of compounds of Formula I were tested for the oral efficacy using S. aureus Smith in mice.
# E. coli GC 2233 = assay: MIC, broth microdilution; conditions: Escherichia coli
# S. pyogenes GC 4563 = assay: MIC, broth microdilution; conditions: Streptococcus pyogenes
# E. coli GC 2235 = assay: MIC, broth microdilution; conditions: Escherichia coli
# E. coli GC 2270 = assay: MIC, broth microdilution; conditions: Escherichia coli
# E. coli GC 2234 = assay: MIC, broth microdilution; conditions: Escherichia coli
# P. aeruginosa GC 2214 = assay: MIC, broth microdilution; conditions: Pseudomonas aeruginosa
# c. albicans GC 3066 = assay: MIC, broth microdilution; conditions: for MIC: Candida albicans, GC3066, read-out: MINIMAL INHIBITORY CONCENTRATION MIC; for MINIMAL INHIBITORY CONCENTRATION MIC: pre-incubated in Water
# S. pneumoniae+ GC 4465 = assay: MIC, broth microdilution; conditions: Streptococcus pneumoniae
# E. faecalis GC 2242 = assay: MIC, broth microdilution; conditions: Enterococcus faecalis
# S. aureus GC 2216 = assay: MIC, broth microdilution; conditions: Staphylococcus aureus
# E. coli GC 2236 = assay: MIC, broth microdilution; conditions: Escherichia coli
# E. coli GC 2271 = assay: MIC, broth microdilution; conditions: Escherichia coli
# [1] = GC4935, read-out: MINIMAL INHIBITORY CONCENTRATION MIC, pre-incubated in Mouse Serum
# [2] = GC4935, read-out: MINIMAL INHIBITORY CONCENTRATION MIC, pre-incubated in Water
# [3] = GC1073, read-out: MINIMAL INHIBITORY CONCENTRATION MIC, pre-incubated in Mouse Serum
# [4] = GC1073, read-out: MINIMAL INHIBITORY CONCENTRATION MIC, pre-incubated in Water
# [5] = GC4556, read-out: MINIMAL INHIBITORY CONCENTRATION MIC, pre-incubated in Mouse Serum
# [6] = GC4556, read-out: MINIMAL INHIBITORY CONCENTRATION MIC, pre-incubated in Water
# [7] = GC4559, read-out: MINIMAL INHIBITORY CONCENTRATION MIC, pre-incubated in Mouse Serum
# [8] = GC4559, read-out: MINIMAL INHIBITORY CONCENTRATION MIC, pre-incubated in Water
# [9] = GC1131, read-out: MINIMAL INHIBITORY CONCENTRATION MIC, pre-incubated in Mouse Serum
# [10] = GC1131, read-out: MINIMAL INHIBITORY CONCENTRATION MIC, pre-incubated in Water
# [11] = GC6335, read-out: MINIMAL INHIBITORY CONCENTRATION MIC, pre-incubated in Mouse Serum
# [12] = GC6335, read-out: MINIMAL INHIBITORY CONCENTRATION MIC, pre-incubated in Water
# [13] = GC1079, read-out: MINIMAL INHIBITORY CONCENTRATION MIC, pre-incubated in Mouse Serum
# [14] = GC1079, read-out: MINIMAL INHIBITORY CONCENTRATION MIC, pre-incubated in Water
# [15] = Staphylococcus aureus, in Mus musculus, po, read-out: ED50 Staph Smith SOD
# [16] = iv, read-out: ED50 Staph Smith SIV
# [17] = GC2233, read-out: MINIMAL INHIBITORY CONCENTRATION MIC, pre-incubated in Mouse Serum
# [18] = GC2233, read-out: MINIMAL INHIBITORY CONCENTRATION MIC, pre-incubated in Water
# [19] = GC4563, read-out: MINIMAL INHIBITORY CONCENTRATION MIC, pre-incubated in Mouse Serum
# [20] = GC4563, read-out: MINIMAL INHIBITORY CONCENTRATION MIC, pre-incubated in Water
# [21] = GC2235, read-out: MINIMAL INHIBITORY CONCENTRATION MIC, pre-incubated in Mouse Serum
# [22] = GC2235, read-out: MINIMAL INHIBITORY CONCENTRATION MIC, pre-incubated in Water
# [23] = GC2270, read-out: MINIMAL INHIBITORY CONCENTRATION MIC, pre-incubated in Mouse Serum
# [24] = GC2270, read-out: MINIMAL INHIBITORY CONCENTRATION MIC, pre-incubated in Water
# [25] = GC2234, read-out: MINIMAL INHIBITORY CONCENTRATION MIC, pre-incubated in Mouse Serum
# [26] = GC2234, read-out: MINIMAL INHIBITORY CONCENTRATION MIC, pre-incubated in Water
# [27] = GC2214, read-out: MINIMAL INHIBITORY CONCENTRATION MIC, pre-incubated in Mouse Serum
# [28] = GC2214, read-out: MINIMAL INHIBITORY CONCENTRATION MIC, pre-incubated in Water
# [29] = read-out: MINIMAL INHIBITORY CONCENTRATION MIC, pre-incubated in Mouse Serum
# [30] = read-out: MINIMAL INHIBITORY CONCENTRATION MIC, pre-incubated in Water
# [31] = GC2242, read-out: MINIMAL INHIBITORY CONCENTRATION MIC, pre-incubated in Mouse Serum
# [32] = GC2242, read-out: MINIMAL INHIBITORY CONCENTRATION MIC, pre-incubated in Water
# [33] = GC2216, read-out: MINIMAL INHIBITORY CONCENTRATION MIC, pre-incubated in Mouse Serum
# [34] = GC2216, read-out: MINIMAL INHIBITORY CONCENTRATION MIC, pre-incubated in Water
# [35] = GC2236, read-out: MINIMAL INHIBITORY CONCENTRATION MIC, pre-incubated in Mouse Serum
# [36] = GC2236, read-out: MINIMAL INHIBITORY CONCENTRATION MIC, pre-incubated in Water
# [37] = GC2271, read-out: MINIMAL INHIBITORY CONCENTRATION MIC, pre-incubated in Mouse Serum
# [38] = GC2271, read-out: MINIMAL INHIBITORY CONCENTRATION MIC, pre-incubated in Water
structure (smiles),measurement,setting,value
"CCCN(CC(=O)Nc1cc(N(C)C)c2c(c1O)C(=O)C1=C(O)[C@]3(O)C(=O)C(C(N)=O)=C(O)[C@@H](N(C)C)[C@@H]3C[C@@H]1C2)C(=O)OCOC(=O)c1cc(C)cc(C)c1 [Example 26, ({[(2-{[(5aR,6aS,7S,10aS)-9-(aminocarbonyl)-4,7-bis(dimethylamino)-1,8,10a,11-tetrahydroxy-10,12-dioxo-5,5a,6,6a,7,10,10a,12-octahydrotetracen-2-yl]amino}-2-oxoethyl)(propyl)amino]carbonyl}oxy)methyl 3,5-dimethylbenzoate]",MIC,S. epidermidis GC 4935; [1],1 µg/mL
same,MIC,S. epidermidis GC 4935; [2],2 µg/mL
same,MIC,E. coli GC 1073; [3],2 µg/mL
same,MIC,E. coli GC 1073; [4],> 64 µg/mL
same,MIC,E. faecium GC 4556; [5],1 µg/mL
same,MIC,E. faecium GC 4556; [6],4 µg/mL
same,MIC,E. coli GC 4559; [7],2 µg/mL
same,MIC,E. coli GC 4559; [8],> 64 µg/mL
same,MIC,S. aureus GC 1131; [9],0.5 µg/mL
same,MIC,S. aureus GC 1131; [10],0.5 µg/mL
same,MIC,S. aureus GC 6335; [11],0.5 µg/mL
same,MIC,S. aureus GC 6335; [12],1 µg/mL
same,MIC,S. aureus GC 1079; [13],1 µg/mL
same,MIC,S. aureus GC 1079; [14],2 µg/mL
same,ED50,"Staph. aureus Smith; Staphylococcus aureus, in Mus musculus, iv, read-out: ED50 SIV (Staph aureus Smith)",0.43 mg/kg
same,ED50,"Staph. aureus Smith; Staphylococcus aureus, in Mus musculus, po, read-out: ED50 SOD (Staph aureus Smith)",8.79 mg/kg
same,ED50,Staph. aureus Smith; [15],8.79 mg/kg
same,ED50,Staph. aureus Smith; [16],0.43 mg/kg
same,MIC,E. coli GC 2233; [17],2 µg/mL
same,MIC,E. coli GC 2233; [18],> 64 µg/mL
same,MIC,S. pyogenes GC 4563; [19],0.25 µg/mL
same,MIC,S. pyogenes GC 4563; [20],0.25 µg/mL
same,MIC,E. coli GC 2235; [21],1 µg/mL
same,MIC,E. coli GC 2235; [22],64 µg/mL
same,MIC,E. coli GC 2270; [23],1 µg/mL
same,MIC,E. coli GC 2270; [24],> 64 µg/mL
same,MIC,E. coli GC 2234; [25],1 µg/mL
same,MIC,E. coli GC 2234; [26],> 64 µg/mL
same,MIC,P. aeruginosa GC 2214; [27],32 µg/mL
same,MIC,P. aeruginosa GC 2214; [28],> 64 µg/mL
same,MIC,c. albicans GC 3066,> 64 µg/mL
same,MINIMAL INHIBITORY CONCENTRATION MIC,c. albicans GC 3066,>64 UG/ML
same,MIC,S. pneumoniae+ GC 4465; [29],4 µg/mL
same,MIC,S. pneumoniae+ GC 4465; [30],4 µg/mL
same,MIC,E. faecalis GC 2242; [31],2 µg/mL
same,MIC,E. faecalis GC 2242; [32],4 µg/mL
same,MIC,S. aureus GC 2216; [33],0.5 µg/mL
same,MIC,S. aureus GC 2216; [34],0.5 µg/mL
same,MIC,E. coli GC 2236; [35],2 µg/mL
same,MIC,E. coli GC 2236; [36],> 64 µg/mL
same,MIC,E. coli GC 2271; [37],1 µg/mL
same,MIC,E. coli GC 2271; [38],> 64 µg/mL
"CCCN(CC(=O)Nc1cc(N(C)C)c2c(c1O)C(=O)C1=C(O)[C@]3(O)C(=O)C(C(N)=O)=C(O)[C@@H](N(C)C)[C@@H]3C[C@@H]1C2)C(=O)OCOC(=O)c1ccc(-c2ccccc2)cc1 [Example 24, ({[(2-{[(5aR,6aS,7S,10aS)-9-(aminocarbonyl)-4,7-bis(dimethylamino)-1,8,10a,11-tetrahydroxy-10,12-dioxo-5,5a,6,6a,7,10,10a,12-octahydrotetracen-2-yl]amino}-2-oxoethyl)(propyl)amino]carbonyl}oxy)methyl 1,1′-biphenyl-4-carboxylate]",MIC,S. epidermidis GC 4935; [1],2 µg/mL
same,MIC,S. epidermidis GC 4935; [2],16 µg/mL
same,MIC,E. coli GC 1073; [3],1 µg/mL
same,MIC,E. coli GC 1073; [4],> 64 µg/mL
same,MIC,E. faecium GC 4556; [5],1 µg/mL
same,MIC,E. faecium GC 4556; [6],32 µg/mL
same,MIC,E. coli GC 4559; [7],1 µg/mL
same,MIC,E. coli GC 4559; [8],> 64 µg/mL
same,MIC,S. aureus GC 1131; [9],1 µg/mL
same,MIC,S. aureus GC 1131; [10],2 µg/mL
same,MIC,S. aureus GC 6335; [11],2 µg/mL
same,MIC,S. aureus GC 6335; [12],16 µg/mL
same,MIC,S. aureus GC 1079; [13],2 µg/mL
same,MIC,S. aureus GC 1079; [14],64 µg/mL
same,ED50,Staph. aureus Smith; [15],27 mg/kg
same,ED50,Staph. aureus Smith; [16],0.59 mg/kg
same,MIC,E. coli GC 2233; [17],1 µg/mL
same,MIC,E. coli GC 2233; [18],> 64 µg/mL
same,MIC,S. pyogenes GC 4563; [19],< 0.06 µg/mL
same,MIC,S. pyogenes GC 4563; [20],< 0.06 µg/mL
same,MIC,E. coli GC 2235; [21],0.5 µg/mL
same,MIC,E. coli GC 2235; [22],> 64 µg/mL
same,MIC,E. coli GC 2270; [23],0.5 µg/mL
same,MIC,E. coli GC 2270; [24],> 64 µg/mL
same,MIC,E. coli GC 2234; [25],0.5 µg/mL
same,MIC,E. coli GC 2234; [26],> 64 µg/mL
same,MIC,P. aeruginosa GC 2214; [27],16 µg/mL
same,MIC,P. aeruginosa GC 2214; [28],> 64 µg/mL
same,MIC,c. albicans GC 3066,> 64 µg/mL
same,MINIMAL INHIBITORY CONCENTRATION MIC,c. albicans GC 3066,>64 UG/ML
same,MIC,S. pneumoniae+ GC 4465; [29],2 µg/mL
same,MIC,S. pneumoniae+ GC 4465; [30],1 µg/mL
same,MIC,E. faecalis GC 2242; [31],2 µg/mL
same,MIC,E. faecalis GC 2242; [32],4 µg/mL
same,MIC,S. aureus GC 2216; [33],0.5 µg/mL
same,MIC,S. aureus GC 2216; [34],4 µg/mL
same,MIC,E. coli GC 2236; [35],1 µg/mL
same,MIC,E. coli GC 2236; [36],> 64 µg/mL
same,MIC,E. coli GC 2271; [37],0.5 µg/mL
same,MIC,E. coli GC 2271; [38],> 64 µg/mL
